Results from patent publication US20240208992A1, “MACROCYCLES AS CFTR MODULATORS” (Idorsia Pharmaceuticals Ltd, priority 2021, published 2024).

Molecular target: human F508del-CFTR (Homo sapiens, UniProt P13569, DEL508-508)
Experiment: F508del-CFTR cell surface expression (corrector activity), DiscoveRx ß-galactosidase complementation chemiluminescence assay in recombinant U2OS cell line;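 further: U2OS cells co-expressing ProLink-tagged F508del-CFTR and a membrane-anchored enzyme acceptor, where more surface CFTR restores β-galactosidase activity measured by chemiluminescence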
Details: for EC50: EC50, F508del-CFTR cell surface expression; for Emax: U2OS
[1] = U2OS cells, 16h compound incubation, geomean of several measurements
[2] = in relation to the Emax of the corrector lumacaftor (=100%), U2OS cells, 16h compound incubation, arithmetic mean
[3] = U2OS cells, 16h compound incubation, geomean values
[4] = in relation to Emax of corrector lumacaftor (=100%), arithmetic mean values

human F508del-CFTR, sequence (P13569 with tags, fused parts or gaps DEL508-508): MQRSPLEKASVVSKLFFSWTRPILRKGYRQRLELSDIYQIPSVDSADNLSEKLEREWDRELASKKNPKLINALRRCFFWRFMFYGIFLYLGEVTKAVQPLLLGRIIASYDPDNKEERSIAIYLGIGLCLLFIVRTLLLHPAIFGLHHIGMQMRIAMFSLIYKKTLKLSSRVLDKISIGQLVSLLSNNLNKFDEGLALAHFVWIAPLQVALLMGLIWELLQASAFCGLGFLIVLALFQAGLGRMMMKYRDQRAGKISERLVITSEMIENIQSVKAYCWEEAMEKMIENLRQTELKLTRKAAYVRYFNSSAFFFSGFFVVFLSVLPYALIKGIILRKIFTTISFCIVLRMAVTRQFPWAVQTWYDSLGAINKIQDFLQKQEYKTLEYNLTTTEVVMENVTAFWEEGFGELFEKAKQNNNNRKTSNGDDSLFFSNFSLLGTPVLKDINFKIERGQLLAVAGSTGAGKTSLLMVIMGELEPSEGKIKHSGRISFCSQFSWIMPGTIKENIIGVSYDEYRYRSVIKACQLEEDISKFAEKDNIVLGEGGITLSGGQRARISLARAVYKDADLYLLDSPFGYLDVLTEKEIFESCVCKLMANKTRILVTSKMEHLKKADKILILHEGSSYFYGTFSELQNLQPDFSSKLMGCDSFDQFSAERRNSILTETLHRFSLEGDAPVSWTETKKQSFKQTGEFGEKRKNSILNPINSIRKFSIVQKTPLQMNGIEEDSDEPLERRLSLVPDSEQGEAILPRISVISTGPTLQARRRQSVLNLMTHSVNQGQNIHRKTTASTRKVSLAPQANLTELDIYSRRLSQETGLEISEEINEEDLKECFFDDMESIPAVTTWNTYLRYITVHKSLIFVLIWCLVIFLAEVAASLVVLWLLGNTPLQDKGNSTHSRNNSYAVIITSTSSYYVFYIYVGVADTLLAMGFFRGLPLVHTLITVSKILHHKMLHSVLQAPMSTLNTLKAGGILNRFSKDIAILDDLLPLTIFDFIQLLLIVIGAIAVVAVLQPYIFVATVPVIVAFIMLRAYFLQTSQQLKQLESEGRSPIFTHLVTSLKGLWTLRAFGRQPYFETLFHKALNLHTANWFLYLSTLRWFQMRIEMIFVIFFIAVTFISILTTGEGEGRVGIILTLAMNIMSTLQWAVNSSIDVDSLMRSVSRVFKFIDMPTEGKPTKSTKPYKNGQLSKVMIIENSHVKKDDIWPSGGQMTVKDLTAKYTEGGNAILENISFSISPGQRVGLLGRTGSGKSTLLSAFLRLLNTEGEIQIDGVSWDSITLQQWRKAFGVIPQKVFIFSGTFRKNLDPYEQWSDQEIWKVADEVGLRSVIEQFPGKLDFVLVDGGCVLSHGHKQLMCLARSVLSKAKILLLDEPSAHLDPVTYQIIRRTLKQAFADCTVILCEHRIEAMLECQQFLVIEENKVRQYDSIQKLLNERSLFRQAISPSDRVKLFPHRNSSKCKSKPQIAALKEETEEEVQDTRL

Row | Compound | EC50 [3] [nM] | Emax [4] [%] | other results
1 | COCCn1cc(CCNC(=O)[C@@H]2CC(=O)N(C)[C@@H](CC(C)C)C(=O)N(C)[C@H](Cc3nc(C(F)(F)F)no3)C(=O)N[C@H](Cc3ccccc3)COc3cc(C)nc(OC)c3C(=O)N2)cn1 [Example 961, (3R,6R,9S,13S)-3-benzyl-9-isobutyl-16-methoxy-N-(2-(1-(2-methoxyethyl)-1H-pyrazol-4-yl)ethyl)-7,10,18-trimethyl-5,8,11,15-tetraoxo-6-((3-(trifluoromethyl)-1,2,4-oxadiazol-5-yl)methyl)-2,3,4,5,6,7,8,9,10,11,12,13,14,15-tetradecahydropyrido[3,4-p][1]oxa[4,7,10,14]tetraazacycloheptadecine-13-carboxamide] |  |  | EC50 [1]: 353 nM; Emax [2]: 453%
2 | Cc1cc2ccc3c(c2o1)C(=O)N[C@H](C(=O)NCCc1cc(C2CC2)no1)CC(=O)N(C)[C@@H](CC(C)C)C(=O)N(C)C1(CC1)C(=O)N[C@H](Cc1ccccc1)CO3 [Example 552, (8R,14S,18S)-8-benzyl-N-(2-(3-cyclopropylisoxazol-5-yl)ethyl)-14-isobutyl-2,12,15-trimethyl-10,13,16,20-tetraoxo-7,8,9,10,13,14,15,16,17,18,19,20-dodecahydro-12H-spiro[benzofuro[7,6-p][1]oxa[4,7,10,14]tetraazacycloheptadecine-11,1′-cyclopropane]-18-carboxamide] | 413 | 358 | 
3 | COc1noc(CCNC(=O)[C@@H]2CC(=O)N(C)[C@@H](CC(C)C)C(=O)N(C)[C@H](Cc3nc(C(F)(F)F)no3)C(=O)N[C@H](Cc3ccccc3)COc3ccc4cnc(C)cc4c3C(=O)N2)n1 [Example 918, (3S,7S,10R,13R)-13-benzyl-7-isobutyl-N-(2-(3-methoxy-1,2,4-oxadiazol-5-yl)ethyl)-6,9,20-trimethyl-1,5,8,11-tetraoxo-10-((3-(trifluoromethyl)-1,2,4-oxadiazol-5-yl)methyl)-1,2,3,4,5,6,7,8,9,10,11,12,13,14-tetradecahydro-[1]oxa[4,7,10,14]tetraazacycloheptadecino[16,17-f]isoquinoline-3-carboxamide] |  |  | EC50 [1]: 42 nM; Emax [2]: 462%
4 | Cc1cn(C)nc1CCNC(=O)[C@@H]1CC(=O)N(C)[C@@H](CC(C)C)C(=O)N2CCCC[C@@H]2C(=O)N[C@H](Cc2ccccc2)COc2cnc3ccccc3c2C(=O)N1 [Example 129, (9S,13S,19aR,22R)-22-benzyl-N-(2-(1,4-dimethyl-1H-pyrazol-3-yl)ethyl)-13-isobutyl-12-methyl-7,11,14,20-tetraoxo-7,8,9,10,11,12,13,14,17,18,19,19a,20,21,22,23-hexadecahydro-16H-pyrido[2′,11:6,7][1]oxa[4,7,10,14]tetraazacycloheptadecino[17,16-c]quinoline-9-carboxamide] |  |  | EC50 (U2OS cell line, 16h compound incubation, geomean values): 406 nM; Emax (in relation to the Emax of the corrector lumacaftor (=100%), U2OS cell line, 16h compound incubation, arithmetic mean values): 264%
5 | CC(C)C[C@H]1C(=O)N(C)[C@H](Cc2nc(C(F)(F)F)no2)C(=O)N[C@H](Cc2ccccc2)COc2ccc3ncc(F)cc3c2C(=O)N[C@H](C(=O)NCCc2nc(C3CC3)no2)CC(=O)N1C [Example 964, (3S,7S,10R,13R)-13-benzyl-N-(2-(3-cyclopropyl-1,2,4-oxadiazol-5-yl)ethyl)-20-fluoro-7-isobutyl-6,9-dimethyl-1,5,8,11-tetraoxo-10-((3-(trifluoromethyl)-1,2,4-oxadiazol-5-yl)methyl)-1,2,3,4,5,6,7,8,9,10,11,12,13,14-tetradecahydro-[1]oxa[4,7,10,14]tetraazacycloheptadecino[16,17-f]quinoline-3-carboxamide] |  |  | EC50 [1]: 21 nM; Emax [2]: 418%
6 | COc1nccc2c1C(=O)N[C@H](C(=O)NCCc1c(F)cccc1F)CC(=O)N(C)[C@@H](CC(C)C)C(=O)N1CCCC[C@@H]1C(=O)N[C@H](Cc1ccccc1)CO2 [Example 478, (7S,11S,17aR,20R)-20-benzyl-N-(2,6-difluorophenethyl)-11-isobutyl-4-methoxy-10-methyl-5,9,12,18-tetraoxo-5,6,7,8,9,10,11,12,15,16,17,17a,18,19,20,21-hexadecahydro-14H-dipyrido[2,1-f:3′,4′-p][1]oxa[4,7,10,14]tetraazacycloheptadecine-7-carboxamide] | 168 | 337 | 
7 | Cc1cc(CCNC(=O)[C@@H]2CC(=O)N(C)[C@@H](CC(C)C)C(=O)N3CCOC[C@@H]3C(=O)N[C@H](Cc3ccccc3)COc3ccc4ccccc4c3C(=O)N2)on1 [Example 608, (4aR,7R,18S,22S)-7-benzyl-22-isobutyl-21-methyl-N-(2-(3-methylisoxazol-5-yl)ethyl)-5,16,20,23-tetraoxo-1,2,4,4a,5,6,7,8,16,17,18,19,20,21,22,23-hexadecahydronaphtho[1,2-p][1,4]oxazino[3,4-f][1]oxa[4,7,10,14]tetraazacycloheptadecine-18-carboxamide] | 804 | 267 | 
8 | CC(C)C[C@H]1C(=O)N(C)[C@H](C)C(=O)N[C@H](Cc2ccccc2)COc2ccc3ncc(F)cc3c2C(=O)N[C@H](C(=O)NCCc2cc(C3CC3)no2)CC(=O)N1C [Example 797, (3S,7S,10R,13R)-13-benzyl-N-(2-(3-cyclopropylisoxazol-5-yl)ethyl)-20-fluoro-7-isobutyl-6,9,10-trimethyl-1,5,8,11-tetraoxo-1,2,3,4,5,6,7,8,9,10,11,12,13,14-tetradecahydro-[1]oxa[4,7,10,14]tetraazacycloheptadecino[16,17-f]quinoline-3-carboxamide] | 399 | 308 | 
9 | Cc1cc(CCNC(=O)[C@@H]2CC(=O)N(C)[C@@H](CC(C)C)C(=O)N(C)[C@@H](Cc3cccc4ccccc34)C(=O)N[C@H](Cc3ccccc3)COc3cnc4ccccc4c3C(=O)N2)on1 [Example 695, (3S,7S,10S,13R)-13-benzyl-7-isobutyl-6,9-dimethyl-N-(2-(3-methylisoxazol-5-yl)ethyl)-10-(naphthalen-1-ylmethyl)-1,5,8,11-tetraoxo-1,2,3,4,5,6,7,8,9,10,11,12,13,14-tetradecahydro-[1]oxa[4,7,10,14]tetraazacycloheptadecino[17,16-c]quinoline-3-carboxamide] | 201 | 237 | 
10 | COc1cc(CCNC(=O)[C@@H]2CC(=O)N(C)[C@@H](CC(C)C)C(=O)N3CCN(C(C)C)C[C@@H]3C(=O)N[C@H](Cc3ccccc3)COc3ccc4ccccc4c3C(=O)N2)cc(OC)c1 [Example 618, (4aR,7R,18S,22S)-7-benzyl-N-(3,5-dimethoxyphenethyl)-22-isobutyl-3-isopropyl-21-methyl-5,16,20,23-tetraoxo-2,3,4,4a,5,6,7,8,16,17,18,19,20,21,22,23-hexadecahydro-1H-naphtho[1,2-p]pyrazino[2,1-f][1]oxa[4,7,10,14]tetraazacycloheptadecine-18-carboxamide] | 80 | 309 | 

Further lines, with some results ahead:

Row | EC50 [3] [nM] | Emax [4] [%] | Compound | other results
11 | 305 | 193 | Cc1cc(CCNC(=O)[C@@H]2CC(=O)N(C)[C@@H](CC(C)C)C(=O)N(C[C@@H]3COc4ccccc4C3)CC(=O)N[C@H](Cc3ccccc3)COc3cnc4ccccc4c3C(=O)N2)on1 [Example 705, (3S,7S,13R)-13-benzyl-9-(((R)-chroman-3-yl)methyl)-7-isobutyl-6-methyl-N-(2-(3-methylisoxazol-5-yl)ethyl)-1,5,8,11-tetraoxo-1,2,3,4,5,6,7,8,9,10,11,12,13,14-tetradecahydro-[1]oxa[4,7,10,14]tetraazacycloheptadecino[17,16-c]quinoline-3-carboxamide] | 
12 | 399 | 131 | Cc1cc(CCNC(=O)[C@@H]2CC(=O)N(C)[C@@H](CC(C)C)C(=O)N(C)[C@@H](CCOCc3ccccc3)C(=O)N[C@H](Cc3ccccc3)COc3cnc4ccccc4c3C(=O)N2)on1 [Example 579, (3S,7S,10S,13R)-13-benzyl-10-(2-(benzyloxy)ethyl)-7-isobutyl-6,9-dimethyl-N-(2-(3-methylisoxazol-5-yl)ethyl)-1,5,8,11-tetraoxo-1,2,3,4,5,6,7,8,9,10,11,12,13,14-tetradecahydro-[1]oxa[4,7,10,14]tetraazacycloheptadecino[17,16-c]quinoline-3-carboxamide] | 
13 | 108 | 256 | Cc1cc(CCNC(=O)[C@@H]2CC(=O)N(C)[C@@H](CC(C)C)C(=O)N3CCN(c4ccccc4)C[C@@H]3C(=O)N[C@H](Cc3ccccc3)COc3cnc4ccccc4c3C(=O)N2)on1 [Example 510, (9S,13S,19aR,22R)-22-benzyl-13-isobutyl-12-methyl-N-(2-(3-methylisoxazol-5-yl)ethyl)-7,11,14,20-tetraoxo-18-phenyl-7,8,9,10,11,12,13,14,17,18,19,19a,20,21,22,23-hexadecahydro-16H-pyrazino[2′,11:6,7][1]oxa[4,7,10,14]tetraazacycloheptadecino[17,16-c]quinoline-9-carboxamide] | 
14 | 958 | 194 | Cc1cc(CCNC(=O)[C@@H]2CC(=O)N(C)[C@@H](CC(C)C)C(=O)N(C[C@H]3CCCCO3)CC(=O)N[C@H](Cc3ccccc3)COc3cnc4ccccc4c3C(=O)N2)on1 [Example 445, (3S,7S,13R)-13-benzyl-7-isobutyl-6-methyl-N-(2-(3-methylisoxazol-5-yl)ethyl)-1,5,8,11-tetraoxo-9-(((R)-tetrahydro-2H-pyran-2-yl)methyl)-1,2,3,4,5,6,7,8,9,10,11,12,13,14-tetradecahydro-[1]oxa[4,7,10,14]tetraazacycloheptadecino[17,16-c]quinoline-3-carboxamide] | 
